Results from ChEMBL document CHEMBL1201862, “PubChem BioAssay data set” (2004).
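Cells were grown in 96-well plates and exposed to each compound for 48 hours at five concentrations; endpoints were interpolated linearly between bracketing concentrations, or set to the highest concentration if not reached. GI50 = concentration required for 50% inhibition of growth.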 Calls of active or inactive are those of the source. Rule as the data show it: active = GI50 up to about 1.1 µM and inactive = higher.

Key:
Assay in all cases: inhibition of tumour cell growth, NCI panel, 48 h
OVCAR-4 = test system: OVCAR-4
OVCAR-5 = test system: OVCAR-5
SK-MEL-2 = test system: SK-MEL-2
UACC-257 = test system: UACC-257
Malme-3M = test system: Malme-3M
UACC-62 = test system: UACC-62
SF-295 = test system: SF-295
SK-MEL-5 = test system: SK-MEL-5
HL-60 = test system: HL-60
IGROV-1 = test system: IGROV-1
NCI-H23 = test system: NCI-H23
ACHN = test system: ACHN
CAKI-1 = test system: CAKI-1
SNB-19 = test system: SNB-19
RPMI-8226 = test system: RPMI-8226

Row | Compound | GI50 (OVCAR-4) | GI50 (OVCAR-5) | GI50 (SK-MEL-2) | GI50 (UACC-257) | GI50 (Malme-3M) | GI50 (UACC-62) | GI50 (SF-295) | GI50 (SK-MEL-5) | GI50 (HL-60) | GI50 (IGROV-1) | GI50 (NCI-H23) | GI50 (ACHN) | GI50 (CAKI-1) | GI50 (SNB-19) | GI50 (RPMI-8226)
1 | O=c1[nH]c(=O)n(C2CC(O)C(CO)O2)cc1/C=C/Br (stereo not drawn) | > 100 µM (inactive) | > 100 µM (inactive) | > 100 µM (inactive) | > 100 µM (inactive) | > 100 µM (inactive) | > 100 µM (inactive) | > 100 µM (inactive) | > 100 µM (inactive) | > 100 µM (inactive) | > 100 µM (inactive) | > 100 µM (inactive) | > 100 µM (inactive) | > 100 µM (inactive) | > 100 µM (inactive) | –
2 | CCN(CC)CCCC(C)Nc1c(Sc2cnc3cc(Cl)ccc3c2NC(C)CCCN(CC)CC)cnc2cc(Cl)ccc12 (stereo not drawn) | 1.73 µM (inactive) | 1.73 µM (inactive) | 1.85 µM (inactive) | 2.03 µM (inactive) | 2.13 µM (inactive) | 1.74 µM (inactive) | – | – | 1.82 µM (inactive) | 1.87 µM (inactive) | 3.3 µM (inactive) | 1.98 µM (inactive) | 1.53 µM (inactive) | – | 1.91 µM (inactive)
3 | Cc1ccc(S(=O)(=O)C(CC(=O)N2CCCC2)C(=O)c2ccccc2)cc1 (stereo not drawn) | > 100 µM (inactive) | > 100 µM (inactive) | – | > 100 µM (inactive) | > 100 µM (inactive) | > 100 µM (inactive) | > 100 µM (inactive) | > 100 µM (inactive) | 19.5 µM (inactive) | > 100 µM (inactive) | > 100 µM (inactive) | > 100 µM (inactive) | 46.9 µM (inactive) | > 100 µM (inactive) | –
4 | CN(C)c1ccc(/C=c2/sc3nc(=O)c(-c4ccccc4NC(=O)C(F)(F)F)nn3c2=O)cc1 | > 100 µM (inactive) | > 100 µM (inactive) | > 100 µM (inactive) | – | > 100 µM (inactive) | > 100 µM (inactive) | > 100 µM (inactive) | > 100 µM (inactive) | – | > 100 µM (inactive) | 67.6 µM (inactive) | > 100 µM (inactive) | > 100 µM (inactive) | > 100 µM (inactive) | –
5 | CC1=CC=NN2C(=O)[C@H](C)C2C1 (stereo partly drawn) | > 100 µM (inactive) | > 100 µM (inactive) | > 100 µM (inactive) | > 100 µM (inactive) | > 100 µM (inactive) | > 100 µM (inactive) | > 100 µM (inactive) | > 100 µM (inactive) | > 100 µM (inactive) | > 100 µM (inactive) | > 100 µM (inactive) | > 100 µM (inactive) | – | > 100 µM (inactive) | > 100 µM (inactive)
6 | C/C(=N\NC(N)=S)c1ccc2c(c1)OCO2 | – | > 100 µM (inactive) | > 100 µM (inactive) | 99.1 µM (inactive) | > 100 µM (inactive) | > 100 µM (inactive) | > 100 µM (inactive) | > 100 µM (inactive) | 21.2 µM (inactive) | > 100 µM (inactive) | > 100 µM (inactive) | > 100 µM (inactive) | > 100 µM (inactive) | > 100 µM (inactive) | > 100 µM (inactive)
7 | CC(C)(C)c1cc2nc(c1)C(C(F)(F)F)(C(F)(F)F)OB(Br)OC2(C(F)(F)F)C(F)(F)F | < 0.01 µM (active) | 0.0532 µM (active) | 1.47 µM (inactive) | < 0.01 µM (active) | 0.617 µM (active) | 0.0176 µM (active) | 0.0834 µM (active) | – | – | 0.0269 µM (active) | 4.47 µM (inactive) | – | 0.0414 µM (active) | 0.156 µM (active) | 0.0607 µM (active)
8 | COc1ccc(-c2cc(=O)c3ccc(O)cc3o2)c(OC)c1OC | 88.7 µM (inactive) | > 10 µM (inactive) | 27.2 µM (inactive) | 94 µM (inactive) | > 100 µM (inactive) | 36.2 µM (inactive) | 46.5 µM (inactive) | – | 31.6 µM (inactive) | > 100 µM (inactive) | 43.4 µM (inactive) | 40.9 µM (inactive) | 89.3 µM (inactive) | 65 µM (inactive) | 18.9 µM (inactive)
9 | O=C1CCC2(c3ccc(Cl)cc3)Nc3ncccc3N12 (stereo not drawn) | > 100 µM (inactive) | > 100 µM (inactive) | > 100 µM (inactive) | > 100 µM (inactive) | > 100 µM (inactive) | > 100 µM (inactive) | > 100 µM (inactive) | > 100 µM (inactive) | > 100 µM (inactive) | > 100 µM (inactive) | > 100 µM (inactive) | > 100 µM (inactive) | > 100 µM (inactive) | – | > 100 µM (inactive)
10 | O=C(Cc1nc2ccccc2s1)Nc1ccc(Cl)cc1 | > 100 µM (inactive) | > 100 µM (inactive) | 88.9 µM (inactive) | > 100 µM (inactive) | > 100 µM (inactive) | 82.2 µM (inactive) | 55.6 µM (inactive) | 83.8 µM (inactive) | > 100 µM (inactive) | > 100 µM (inactive) | > 100 µM (inactive) | 56.5 µM (inactive) | > 100 µM (inactive) | > 100 µM (inactive) | –
